This note sets out measurements from patent US20250213563A1, “SUBSTITUTED PYRIMIDIN-4(3H)-ONES FOR USE IN TREATING CANCER” (NAVIRE PHARMA, INC., priority 2021, published 2025).

The target in data set [1] is T1, full-length human SHP2 wild-type enzyme (Homo sapiens, UniProt Q06124).
T1 construct: full-length human SHP2 (amino acid 1-597); 6xHis (TEV site) (N, cleaved yes); made in house; host or cells: E. coli BL21 (DE3)
Briefly: SHP2 enzymatic assay (DiFMUP), full-length enzyme. As to conditions: in presence of 1 μM bistyrosylphorphorylated peptide; mean±SD, 34 independent test occasions. In kind it is biochemical. On the procedure: (§1) Protein purification: The recombinant DNA for full-length human SHP2 (amino acid 1-597) or the phosphatase domain of human SHP2 (amino acid Ala237-Ile529) was cloned into a pET30 vector (Sigma #69909-3), which was modified to contain a TEV protease site after the N-terminal 6×His tag. The expression vector was transformed into E. coli BL21 (DE3) (NEB #C2527H). The protein was expressed and purified by the following procedure. Bacterial cells from a 50 mL overnight culture were inoculated in 6 L of terrific broth media. Once the E. coli culture reached an OD600 of 0.7, the temperature was lowered to 18° C. and recombinant protein expression was induced by the addition of 0.5 mM IPTG. After overnight incubation, the cells were harvested by centrifugation at […] for 45 min in a Sorvall Lynx 6000 (Thermo Fisher) centrifuge with F9-6×1000 LEX rotor. The cell pellets were stored at −80° C. until purification. […] The final product was 98% pure as determined by SDS-PAGE. The concentration of SHP2 protein was determined from the absorbance at 280 nm wavelength, using the calculated molar extinction coefficient for SHP2 protein of 72770 M^−1 cm^−1.
(§2) SHP2 enzymatic assay: Phosphatase activity of full-length human SHP2 wild-type enzyme or SHP2 phosphatase domain was measured using fluorogenic 6,8-difluoro-4-methylumbelliferyl phosphate (DiFMUP; Molecular Probes #D6567) as the substrate. […]

In data set [2] the target is T2, phosphatase domain of human SHP2 (Homo sapiens, UniProt Q06124).
T2 construct: phosphatase domain of human SHP2 (amino acid Ala237-Ile529); 6xHis (TEV site) (N, cleaved yes); made in house; host or cells: E. coli BL21 (DE3)
The data set is described as follows: SHP2 enzymatic assay (DiFMUP), phosphatase domain. Format: biochemical. Particulars: at up to 50 μM. On the procedure: as §1, §2

Data set [3] deals with panel of 73 receptors and ion channels and 12 additional enzymes. Briefly: Eurofins Cerep off-target panel. Particulars: 10 μM. On the procedure: In addition to the kinase and phosphatase screens, Compound (10b) (10 μM) was tested against a panel of 73 receptors and ion channels and 12 additional enzymes using the Eurofins Cerep platform. In this screen, inhibition or stimulation of >50% is considered to be a significant effect.

Data set [4] in a line: Single oral dose exposure in NOD/SCID mice. Format: in vivo. Particulars: male, mouse; for Kp at 24 h: brain; for AUC(0-inf) / Cmax: plasma. On the procedure: Male NOD/SCID mice (n=3 per group) were administered a single dose of Compound (10b) at 1, 3, 10, 30, and 100 mg/kg by oral gavage. Plasma was collected at 0.25, 1, 2, 4, 8, and 24 hours after each dose, and brains were collected at 24 hours after each dose. Compound (10b) concentrations were determined with LC-MS/MS.

Entries after “also recorded” stand apart in the source; their conditions may differ. Where two headings read alike, the source gives them in different places.

T2 sequence (Q06124 237-529): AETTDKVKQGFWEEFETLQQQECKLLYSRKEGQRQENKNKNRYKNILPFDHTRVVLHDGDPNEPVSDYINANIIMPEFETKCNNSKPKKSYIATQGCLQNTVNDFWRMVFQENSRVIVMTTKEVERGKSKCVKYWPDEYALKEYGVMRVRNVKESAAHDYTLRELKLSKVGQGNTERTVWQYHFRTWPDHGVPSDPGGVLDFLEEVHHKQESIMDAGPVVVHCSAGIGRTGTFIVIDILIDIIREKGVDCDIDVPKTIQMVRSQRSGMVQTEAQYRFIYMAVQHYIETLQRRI
T1 sequence (Q06124 1-597 isoform Q06124-1): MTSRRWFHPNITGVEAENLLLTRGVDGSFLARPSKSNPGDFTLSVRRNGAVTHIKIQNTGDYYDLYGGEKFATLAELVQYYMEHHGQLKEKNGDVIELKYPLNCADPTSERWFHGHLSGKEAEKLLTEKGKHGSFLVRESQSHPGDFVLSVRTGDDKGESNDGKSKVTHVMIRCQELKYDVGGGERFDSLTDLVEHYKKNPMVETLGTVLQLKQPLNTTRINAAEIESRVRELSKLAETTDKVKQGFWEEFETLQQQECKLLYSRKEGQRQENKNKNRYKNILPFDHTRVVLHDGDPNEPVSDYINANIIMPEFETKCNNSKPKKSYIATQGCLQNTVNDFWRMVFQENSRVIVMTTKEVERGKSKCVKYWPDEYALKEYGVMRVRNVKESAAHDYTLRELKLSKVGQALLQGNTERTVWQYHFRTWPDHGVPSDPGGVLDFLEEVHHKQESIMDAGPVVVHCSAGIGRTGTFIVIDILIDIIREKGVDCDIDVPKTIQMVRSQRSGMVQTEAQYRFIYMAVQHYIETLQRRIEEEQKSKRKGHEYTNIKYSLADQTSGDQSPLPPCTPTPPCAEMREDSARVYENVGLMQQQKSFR

A word on the IC50: it is the concentration at which inhibition is half-maximal. As usually defined, the AUC(0-inf) is the area under the concentration-time curve extrapolated to infinity. A word on the Cmax: it is the highest concentration seen after dosing. Turning to `Cc1c(N2CCC3(CC2)CO[C@@H](C)[C@H]3N)nc(C)n(-c2cccc(Cl)c2Cl)c1=O` (atropisomer, axis not shown; (Ra)) [Compound (10b), 6-((3S,4S)-4-amino-3-methyl-2-oxa-8-azaspiro[4.5]decan-8-yl)-3-(Ra)-(2,3-dichlorophenyl)-2,5-dimethylpyrimidin-4(3H)-one], the IC50 in data set [1] was determined as 13.2 ± 10.6 nM. Further, the “suppression of enzymatic activity of SHP2 phosphatase domain” value in data set [2] is listed as “did not suppress; also recorded: does not suppress”. In addition, the “inhibition or stimulation of >50%” value in data set [3] is “No effects of this magnitude were observed”. For the same molecule, the Kp at 24 h stood at 0.33 in data set [4] (oral, mean over doses 1-100 mg/kg, read-out: mean total brain/plasma level at 24 hours); 0.35 in data set [4] (single oral dose 1 mg/kg, read-out: total brain/plasma levels at 24 hours); 0.31 in data set [4] (single oral dose 3 mg/kg, read-out: total brain/plasma levels at 24 hours); 0.3 in data set [4] (single oral dose 10 mg/kg, read-out: total brain/plasma levels at 24 hours); 0.31 in data set [4] (single oral dose 30 mg/kg, read-out: total brain/plasma levels at 24 hours); 0.37 in data set [4] (single oral dose 100 mg/kg, read-out: total brain/plasma levels at 24 hours). Besides, the AUC(0-inf) in data set [4] (single oral dose 1 mg/kg) turned out to be 1030 ng·h/mL; in data set [4] (single oral dose 3 mg/kg), 3530 ng·h/mL; in data set [4] (single oral dose 10 mg/kg), 13000 ng·h/mL; in data set [4] (single oral dose 30 mg/kg), 30600 ng·h/mL; in data set [4] (single oral dose 100 mg/kg), 123000 ng·h/mL. The Cmax in data set [4] (single oral dose 1 mg/kg) was determined as 160 ng/mL; in data set [4] (single oral dose 3 mg/kg), 507 ng/mL; in data set [4] (single oral dose 10 mg/kg) it was 2030 ng/mL; in data set [4] (single oral dose 30 mg/kg), 4870 ng/mL; in data set [4] (single oral dose 100 mg/kg), 13900 ng/mL.
